The experiment deals with Rat Chronic Constriction Injury Model. As to conditions: 0.02 mg/kg/day subcutaneously. The method, then: A 2-month chronic constriction injury (CCI) model of neuropathic pain was used to evaluate different formulations of a clonidine, encapsulated in bioerodable polymers compared to fluocinolone given subcutaneously (SC). Different formulations as provided in Table 5 below were evaluated for reducing pain-associated behaviors: Thermal paw withdrawal latency was evaluated at baseline 7, 14, 21, 28, 35, 42, 49, 56 and […] mechanical threshold was evaluated at 8, 15, 22, 29, 36, 43, 50, 57 and 64 days post-operatively.
The inventor evaluated the efficacy of a five Month Clonidine/Polyrner Drug Depot in the Rat Chronic Constriction Injury Model. The animal model was the Bennett Model (Wistar rat). The purpose: To determine whether a five month polymer clonidine-eluting depot can improve pain associated behavioral responses in a rat model of neuropathic pain.
Experimental Design: Four loose chromic gut ligatures, 1 mm apart, were tied around the common sciatic nerve at mid-thigh. Each animal received treatment of test or control article-according to the dosing described in Table 5.
The inventor has conducted the present study for a period of 64 days and have employed the following two tests: (1) the Hargreaves test; and (2) the von Frey test. The Hargreaves Tests of Thermal Hyperalgesia were conducted on days 7, 14, 21, 28, 35, 42, 49, 56 and 63. […]

On to `Clc1cccc(Cl)c1N=C1NCCN1` [clonidine, 2,6-dichloro-N-2-imidazolidinyldenebenzenamine], for which the “pain behavioral response (measured as a percentage of baseline) for thermal hyperalgesia” value (FIG. 3, vs unloaded polymer depots 45%) was 58%. Also, the “pain behavioral response (percentage of baseline) for mechanical allodynia, in words” value (FIG. 4, compared to unloaded polymer depots) is “reduced the behavioral response”.
